From US8673306B2, “Compositions and methods of use for antibodies of dickkopf-1” (Novartis AG, priority 2006, dated 2014)
Entries after “also recorded” stand apart in the source; their conditions may differ.

Columns and labels:
tumor cell lines = assay: Survival and proliferation of cancer cell lines (Cell Titer Glo); format: cell-based; conditions: 100 μg/ml, three days, three serum concentrations
Protocol: This assay is carried out in three different serum concentrations (serum free, minimal growth, and complete growth). […] Cell line supernants are analyzed for DKK1 expression by ELISA.

DKK2 = biological target: T1, DKK2 (Homo sapiens, UniProt Q9UBU2); assay: Binding to human DKK2 (preliminary immunoprecipitation)
T1 sequence (Q9UBU2 34-259): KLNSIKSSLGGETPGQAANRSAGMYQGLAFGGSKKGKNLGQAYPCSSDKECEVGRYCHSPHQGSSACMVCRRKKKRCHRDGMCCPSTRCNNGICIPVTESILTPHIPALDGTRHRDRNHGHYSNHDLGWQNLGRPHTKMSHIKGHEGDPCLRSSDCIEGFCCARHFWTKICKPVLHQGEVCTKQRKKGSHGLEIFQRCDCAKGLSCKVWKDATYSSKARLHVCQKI
Description: Of note, neither DKK2 nor DKK4 conserve the Asparagine residue that is predicted to be targeted for glycosylation in the Cys-2 domain of DKK1.

[1] = test system: subcutaneous PC3M2AC6 xenografts; assay: Subcutaneous PC3M2AC6 xenografts in mice; conditions: mouse, in vivo, sc
[2] = test system: N-linked deglycosylated rhDKK1; assay: ELISA binding to N-linked deglycosylated rhDKK1; design: species or system human; conditions: PNGase F treated rhDKK1, relative to WT
C3H10T1/2 (10T1/2) cells = assay: Wnt-mediated osteoblast differentiation / alkaline phosphatase secretion of C3H10T1/2 cells; format: cell-based, mouse; conditions: Wnt3A conditioned medium
Description: Upon osteoblast differentiation the 10T1/2 cells secrete alkaline phosphatase (AP), a phenomena which can be inhibited by DKK1.

DKK1 (N-degly) = assay: Biacore T100 SPR with N-DEGLY DKK1; format: binding, human
[3] = test system: tumor and sham implanted tibias; assay: Bone effects in tumor-induced osteolytic model (micro-CT, histology); format: in vivo, mouse
Protocol: An osteolytic prostate tumor model is adapted from a method by [Kim 2003]. A variant of the osteolytic prostate tumor cell line (PC3M) that stably expresses luciferase (PC3M2AC6) is injected into the tibia of mice. The growth of the tumor is monitored by luciferase while changes in bone are monitored by micro-computerized tomography (micro-CT) and histology. […] Cortical damage is scored from 0=no damage to 3=severe damage. FIG. 12B. Cortical damage in tumor-implanted tibias is manually scored by microCT analysis that are blinded with respect to the study groups. No cortical damage is observed in any of the sham implanted legs. Methods: Female nude mice at age of 12 weeks old are implanted intatibially with 2×10^5 PC-3M2AC6 cells in the left tibia and sham-injection in the right tibia. Treatments started on day 5 post implantation. […] Vehicle (PBS) control is also administered q.d., 3 times a week for 2 weeks. Animals are scanned at day 7, 14, and 18 post tumor implantation using the μ-CT VivaCT40 Scanner (SCANCO, Switzerland). Trabecular bone density (BV/TV) is analyzed as described in methods. An asterisks (*) indicates statistical significant difference from both vehicle and IgG controls (n=12) at the same time point at p<0.05. In FIG. 13, to determine the bone mass, the secondary spongiosa of the tibia is imaged with the Zeiss Imager Z.1 and Axiovision software based on Giemsa stain. The readout is based on the percent calcified bone in the entire field. Every column represents the mean and standard deviation of the stated number of animals. In the PBS, IgG, and anti-DKK1/4 antibody treated groups, only animals with tumor are analyzed. […] Statistic: Dunnett Multiple Comparisons Test One-Way ANOVA. Left legs or right legs compared to the respective leg in the PBS group p<0.05*, p<0.01**, p>0.05 n.s. […] Trabecular bone density (BV/TV) is analyzed as described in methods. * indicates statistical significant difference from all controls including, vehicle, IgG, drill only, and naïve animals at the same time point at p<0.05.

PC3M2AC6 xenografts = assay: Intratibial growth of PC3M2AC6 xenografts in mice; format: in vivo, mouse; conditions: i.v., 3 times a week for 2 weeks
Protocol: An osteolytic prostate tumor model is adapted from a method by [Kim 2003]. A variant of the osteolytic prostate tumor cell line (PC3M) that stably expresses luciferase (PC3M2AC6) is injected into the tibia of mice. The growth of the tumor is monitored by luciferase while changes in bone are monitored by micro-computerized tomography (micro-CT) and histology.
Control IgG is administered i.v., at 200 μg/mouse/day, q.d., 3 times a week for 2 weeks. Vehicle control (PBS) is administered i.v., q.d., 3 times a week for 2 weeks. Final efficacy data and body weight change are calculated after treatment.

[4] = biological target: T2, DKK1/LRP6 binding on cell surface (Homo sapiens, UniProt O94907); assay: DKK1-GFP binding to LRP6 on HEK293T cell surface, fluorescence microscopy; format: cell-based; conditions: HEK293T transfected with LRP6 and MESD
T2 construct: made in house; LRP6 and MESD transiently transfected into HEK293T
T2 sequence (O94907 32-266): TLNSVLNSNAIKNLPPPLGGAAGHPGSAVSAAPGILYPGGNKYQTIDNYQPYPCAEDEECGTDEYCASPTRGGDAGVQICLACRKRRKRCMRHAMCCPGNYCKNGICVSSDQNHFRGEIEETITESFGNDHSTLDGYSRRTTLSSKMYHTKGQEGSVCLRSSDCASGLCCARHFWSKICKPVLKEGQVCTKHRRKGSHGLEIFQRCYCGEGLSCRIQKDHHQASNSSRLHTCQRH
Protocol: However, upon co-transfection of LRP6 with a surface trafficking chaperone protein, MESD, GFP-tagged DKK1 can be detected on the cell surface, illustrating the specific nature of the DKK1/LRP6 interaction.
The ability of MOR04910 to inhibit DKK1/LRP6 binding on cell surface is measured by fluorescence microscopy. HEK293T cells are either mock transfected and transiently transfected with plasmids encoding LRP6 and MESD. Cells are incubated with DKK1-GFP conditioned medium together with anti-lysozyme FAb or anti-DKK1 FAb MOR04910 for 1 hour at 37° C., and examined by fluorescence microscopy. GFP fluorescence reflects DKK1-GFP binding to overexpressed LRP6 on the plasma membrane.

DKK3 = DKK3 (Homo sapiens, UniProt Q9UBP4); assay: Biacore T100 binding to human DKK3
Chain of DKK3 (Q9UBP4 22-350): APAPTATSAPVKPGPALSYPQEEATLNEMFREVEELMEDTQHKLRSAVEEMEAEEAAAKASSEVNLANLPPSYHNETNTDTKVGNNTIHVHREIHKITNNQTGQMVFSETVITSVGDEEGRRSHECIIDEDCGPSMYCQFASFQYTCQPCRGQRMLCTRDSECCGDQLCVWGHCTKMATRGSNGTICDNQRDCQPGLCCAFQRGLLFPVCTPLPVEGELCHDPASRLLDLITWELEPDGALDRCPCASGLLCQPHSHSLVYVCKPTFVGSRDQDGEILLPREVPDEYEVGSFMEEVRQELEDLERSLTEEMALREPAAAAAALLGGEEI

[5] = biological target: T3, rhDKK1 (recombinant human DKK1) (Homo sapiens, UniProt O94907); assay: Biacore T100 SPR of captured antibody with rhDKK1; format: binding; conditions: WT DKK1
T3 construct: host or cells: HEK / HEK293
T3 sequence (O94907 32-266): T2 sequence (O94907 32-266)
Protocol: FIG. 6. METHODS: The binding affinity and kinetics of lead candidates and rhDKK1 (recombinant human DKK1) (Batch BTP7757) are measured using surface plasmon resonance with a Biacore T100 (Biacore, Uppsala, Sweden) instrument containing a CM5 (S) sensor chip (Cat#BR-1006-68). Anti-Human IgG1 Fc (Jackson Immuno Research, Cat#109-006-098) is immobilized onto each flow cell, followed by capture of a lead candidate at an expected capture of about 100 RU. Finally, six concentrations of DKK1 (range 0.195-6.25 nM), with one repeat concentration, is run over the chip. Flow cells are activated for binding of DKK1 for 240 seconds, and disassociation is followed for 30 minutes. The normalized data (background subtracted) are fit to a 1:1 binding with mass transport model using Kinetics analysis in BIA evaluation 1.0 software. This experiment is carried out in triplicate, and data presented are the average of these three experiments with standard deviation.

Percent Binding, DKK1 (dyglycosylated) [2]: 12-18%
Kd (DKK1 (N-degly)): 0.0003071 s⁻¹
binding to DKK3 (DKK3): does not bind DKK3
Ka [5]: 7.449e+06 M⁻¹ s⁻¹
Kd [5]: 2.319e-05 s⁻¹
Substance: anti-DKK1/4 antibody: neutralizing anti-DKK1/4 antibody sharing the same variable regions as MOR04910 (4910 chains SEQ ID NO: 111/115, BHQ880)
effect on survival and proliferation of cancer cell lines (tumor cell lines): No significant changes
binding to DKK2 (DKK2): does not specifically bind DKK2; also recorded: no significant binding to DKK2
effect on subcutaneous xenograft growth [1]: non-significant trend toward inhibition
reversal of DKK1 inhibited alkaline phosphatase secretion (C3H10T1/2 (10T1/2) cells): blocks DKK1 suppression of 10T1/2 differentiation
Ka (DKK1 (N-degly)): 1.424e+06 M⁻¹ s⁻¹
anti-osteolytic activity compared with Zometa ([3]; mouse, in vivo): equivalent anti-osteolytic activity as Zometa
tumor-induced cortical bone damage ([3]; mouse, in vivo): inhibits tumor-induced cortical bone damage
production of bone / bone volume ([3]; tumor and sham implanted tibias): increases the production of bone in both tumor and sham implanted tibias
effect on intratibial tumor growth (PC3M2AC6 xenografts): trended toward inhibition of tumor growth
inhibition of DKK1/LRP6 binding on cell surface [4]: blocks DKK1 interactions with LRP6 on cell surfaces
